Experimental findings from patent EP4700040A1, “PEPTIDE AND LUMINESCENT COMPLEX CONTAINING SAME” (Shenzhen Loggene Life Science & Technology Co., Ltd., priority 2023, dated 2024) are described below.

Assay [1] has as its system PCT. The assay can be described thus: Second library screening for PCT detection, clone supernatants, retest with CTZ-h (Example 4). The assay is classed as biochemical, human. As to conditions: for Signal-to-noise ratio: PCT+/PCT-, MBP-PCT 3.3 ng/ml, CTZ-h; for PCT+: luminescence signal value with MBP-PCT 3.3 ng/ml; for PCT+ / PCT-: large subunit-rSCFV5 12.5 nM, CTZ-h 25 µM, 60 s; for PCT-: luminescence signal value, PBSAD control without PCT. How it is done: In order to further improve the signal-to-noise ratio and complementary activity of the luciferase dual-antibody complementary activation assay, novel complementary luciferase small subunits were prepared in this example. Large subunit-rSCFV5 fusion protein (SEQ ID NO: 87) was kept unchanged, and the small subunit sequence of the rSCFV18-RB073 fusion protein (SEQ ID NO: 89) were modified by semi-randomization. The theoretical diversity was 6912, the library capacity was 10^6, and 3,000 single clones were picked. The method of protein induction and expression was the same as that in Example 2.
Detection Methods: • (1) The concentration of large subunit-rSCFV5 fusion protein was diluted to 12.5 nM, and 15 µl was added per well; • (2) MBP-PCT fusion protein was diluted to 3.3 ng/ml with PBSAD, and 10 µl was added per well; • (3) HB2151 strain containing plasmids with different small subunit sequences were induced by IPTG at 30°C overnight, then treated with polymyxin B for 1.5h, and centrifuged to collect the supernatant, and 2.5µl supernatant was added per well; • (4) The above three components were slightly mixed, incubated at 37°C for 7 min, and Obuffer 6.37-3 containing Furimazine at a concentration of 25 µM was added, and after 3 min, the luminescence signal value was detected using a bioluminescence detector; and • (5) Clones with RLU higher than 10,000 were picked. The substrate was replaced with CTZ-h substrate for retesting (Obuffer 6.37-3 containing CTZ-h at a concentration of 25 µM was added, and after 60 s, the luminescence signal value was detected using a bioluminescence detector), and a PBSAD control was added to test the signal-to-noise ratio.

Assay [2] deals with PCT. The assay can be described thus: Sensitivity and linear range for PCT detection of preferred small subunits (Example 5). Format: biochemical, human. Conditions: for luminescence value: normalized; for Signal-to-noise ratio at 1000 pg/ml: large subunit 8.3~25 nM, small subunit fusion 30~180 nM, CTZ-h 15 µM. How it is done:
Detection Methods: • (1) The concentration of large subunit-rSCFV5 fusion protein was diluted with PBSA to 8.3~25nM, and 15µl was added per well; • (2) MBP-PCT fusion proteins were diluted with PBSAD in a downward gradient starting from 2.5 µg/ml, and 10 µl was added per well; • (3) The rSCFV18-small subunit mutant-containing fusion protein was diluted with PBSA to 30~180 nM, and 15 µl was added per well; • (4) The above three components were slightly mixed, incubated at 37°C for 15 min, and Obuffer 6.37-3 containing CTZ-h at a concentration of 15 µM was added, and the luminescence signal value was immediately detected using a bioluminescence detector (the luminescence value was normalized);

On to VSGYRIFDKKS [RC-044], for which, in assay [1], the Signal-to-noise ratio stood at 8.0, the “PCT+” value was 10392 and the PCT- worked out at 1302.
As to VSGYRLFDKVS [RC-178], the Signal-to-noise ratio in assay [1] is 9.6. The “PCT+” value in assay [1] is given as 5708. In assay [1], the PCT- came to 593. For the same sequence, the luminescence value came to 5000 in assay [2] (PCT 0.0, background); 4911 in assay [2] (PCT 1 (pg/ml)); 5152 in assay [2] (PCT 3 (pg/ml)); 5180 in assay [2] (PCT 10 (pg/ml)); 6047 in assay [2] (PCT 30 (pg/ml)); 8378 in assay [2] (PCT 100 (pg/ml)). In addition, the luminescence value was 41922 in assay [2] (PCT 1000 (pg/ml)), 350855 in assay [2] (PCT 10000 (pg/ml)), 1664322 in assay [2] (PCT 100000 (pg/ml)) and 1858964 in assay [2] (PCT 250000 (pg/ml)). The “Signal-to-noise ratio at 1000 pg/ml” value in assay [2] is on record as 8.4.
As to VEGYRLFERKS [RC-145], in assay [1], the Signal-to-noise ratio is listed as 10.1, the “PCT+” value was 8198 and the PCT- is given as 808.
With VNGWRLFDKKS [RC-271], in assay [1], the Signal-to-noise ratio was 5.0, the “PCT+” value was 7132 and the PCT- was 1428.
In the same order, the values of VEGYRLFEKIS [RC-082] are 5.8, 12852 and 2232.
In the same order, the values of VDGWRLFDKKS [RC-175] are 11.8, 6953 and 587.
The corresponding values for VSGYRLFDKVS [RC-208] are 6.0, 12303 and 2056.
VEGYRIFEKKW [RC-286]: in assay [1], the Signal-to-noise ratio came out at 11.4. The “PCT+” value in assay [1] amounted to 5003. The sequence also had a PCT- in assay [1] of 438. In addition, the luminescence value in assay [2] (PCT 0.0, background) worked out at 5000; in assay [2] (PCT 1 (pg/ml)) it was 4670; in assay [2] (PCT 3 (pg/ml)) it was 4645; in assay [2] (PCT 10 (pg/ml)), 4833; in assay [2] (PCT 30 (pg/ml)) it was 5406; in assay [2] (PCT 100 (pg/ml)), 6696. Moreover, the luminescence value in assay [2] (PCT 1000 (pg/ml)) worked out at 27596; in assay [2] (PCT 10000 (pg/ml)), 236023; in assay [2] (PCT 100000 (pg/ml)) it was 1443932; in assay [2] (PCT 250000 (pg/ml)), 2007480. The “Signal-to-noise ratio at 1000 pg/ml” value in assay [2] is given as 5.5.
In the case of VDGWRLFERKS [RC-171], in assay [1], the Signal-to-noise ratio is reported as 7.6, the “PCT+” value turned out to be 10309 and the PCT- is recorded as 1363.
As to VEGYRLFEKIS [RC-036], in assay [1], the Signal-to-noise ratio was 5.5, the “PCT+” value came to 8563 and the PCT- turned out to be 1565.
The corresponding values for VEGWRIFERKW [RC-070] are 5.2, 8980 and 1715.
In the same order, the values of VDGWRLFDKKS [RC-103] are 6.5, 8672 and 1337.
The corresponding values for VSGYRLFDKKW [RC-261] are 4.5, 7217 and 1616.
As for VSGYRLFDKKS [RC-134], in assay [1], the Signal-to-noise ratio was 7.7, the “PCT+” value is reported as 9409 and the PCT- stood at 1223.
As to VEGYRLFEKVS [RC-042], in assay [1], the Signal-to-noise ratio came out at 9.7, the “PCT+” value is listed as 5769 and the PCT- is reported as 593.
For VSGYRIFERKW [RC-206], in assay [1], the Signal-to-noise ratio came out at 5.9, the “PCT+” value was determined as 7413 and the PCT- turned out to be 1260.
The corresponding values for VEGYRLFERKS [RC-105] are 5.0, 14534 and 2934.
In the same order, the values of VEGWRLFDRKS [RC-232] are 5.8, 18313 and 3183.
In the same order, the values of VSGYRLFDRVS [RC-032] are 4.8, 9519 and 1998.
For the sequence VSGYRLFDRKS [RC-098], in assay [1], the Signal-to-noise ratio was 5.1, the “PCT+” value is 8666 and the PCT- amounted to 1698.
The corresponding values for VSGWRIFDKKS [RC-124] are 7.5, 9280 and 1234.
In the case of VSGYRIFEKKS [RC-129], in assay [1], the Signal-to-noise ratio was found to be 5.8, the “PCT+” value is listed as 12040 and the PCT- is 2068.
Consider VEGYRLFEKIS [RC-239], for which, in assay [1], the Signal-to-noise ratio is 6.0, the “PCT+” value is 10022 and the PCT- worked out at 1676.
In the same order, the values of VNGWRIFDKKS [RC-242] are 5.9, 9037 and 1524.
With VSGYRLFDKVS [RC-114], in assay [1], the Signal-to-noise ratio is given as 6.5, the “PCT+” value amounted to 6401 and the PCT- is given as 982.
The corresponding values for VEGWRLFDRVS [RC-237] are 5.0, 10821 and 2186.
The corresponding values for VSGYRIFEKKS [RC-152] are 5.6, 9688 and 1715.
In the same order, the values of VSGYRLFDRVW [RC-220] are 5.7, 6738 and 1192.
In the case of VEGYRLFDKVS [RC-247], in assay [1], the Signal-to-noise ratio worked out at 8.8, the “PCT+” value was found to be 4398 and the PCT- is on record as 497.
Take VSGWRIFDRKS [RC-041]: in assay [1], the Signal-to-noise ratio amounted to 4.7, the “PCT+” value is given as 11789 and the PCT- is recorded as 2495.
In the same order, the values of VDGYRLFERKS [RC-203] are 6.6, 10062 and 1536.
The corresponding values for VSGYRLFDRKS [RC-228] are 5.4, 16339 and 3000.
In the same order, the values of VSGYRLFDRKS [RC-018] are 6.6, 13188 and 1998.
As to VSGYRLFDRKW [RC-033], in assay [1], the Signal-to-noise ratio is recorded as 10.4, the “PCT+” value stood at 8509 and the PCT- came to 820.
The corresponding values for VSGYRIFEKKW [RC-113] are 5.3, 6207 and 1176.
The corresponding values for VEGYRLFDKVS [RC-087] are 8.0, 6923 and 861.
